# Assays:
# [1] = tested on: stress urinary incontinence; conditions: clinical study; cited from earlier work
# [2] = tested on: external urethral sphincter of extracted rat urethra; assay: External urethral sphincter contractile response induced by transmural electrical stimulation using extracted rat urethra; conditions: extracted rat urethra strips, 10 or 30 μmol/L, 15 minutes after addition, transmural electrical stimulation 20 V, 20 Hz; FIG. 1
# [3] = tested on: rat diaphragm; conditions: in vitro, transmural electrical stimulation; cited from earlier work
# [4] = tested on: SD female rats; assay: Reaction increasing urethra internal pressure induced by electrical stimulation of rat pudendal nerve; type: in vivo; conditions: anesthetized SD female rats, 3 or 10 mg/kg intravenously, about three minutes after administration; FIG. 2
# Method: Test to Evaluate Reinforcing Action of Compound A on Reaction Increasing Urethra Internal Pressure Induced by Electrical Stimulation of Rat Pudendal Nerve
# SD female rats (Japan SLC, Inc.) having a body weight of 200-350 g were anesthetized with urethane (1.2 g/kg, sc; Sigma-Aldrich), and a catheter (PE-50; Becton Dickinson) was lodged in the jugular vein for administering the test substance. Laparotomies were performed, and the dome of the bladder was cut open to allow discharge of the urine in the bladder. A microchip pressure transducer catheter (3.5Fr; Millar Instruments) was inserted from the external urethral orifice toward the bladder to measure the urethra internal pressure. The rats were arranged prone, the back was cut open, and several left and right pudendal nerves were isolated and held in place with exciting electrodes. […] The average of the reactions increasing urethra internal pressure by electrical stimulation three times before administering the test substance was calculated as the level before administering the test substance, and the percentage of reaction increasing urethra internal pressure by electrical stimulation about three minutes after administering the test substance to the value before administering the test substance was calculated for each of the treatment groups.
# [5] = tested on: rat extensor digitorum longus muscle; conditions: in vivo, electrical stimulation of the rat fibular nerve; cited from earlier work
# [6] = tested on: rat diaphragm myofibrils; conditions: cited from earlier work
# [7] = tested on: rat extensor digitorum longus muscle; conditions: rat extensor digitorum longus muscle including a fast-muscle component; cited from earlier work
# [8] = preclinical study; cited from earlier work
compound,measurement,setting,value
"CCOc1ccccc1O[C@@H](c1ccccc1)[C@@H]1CNCCO1 [(S,S)-reboxetine]",efficacy on stress urinary incontinence,[1],effective for stress urinary incontinence
same,urethral resistance,[1],increased urethral resistance
"NC(=O)c1ccn(-c2cnc(NC[C@]3(c4ncccc4F)C[C@H](F)C3)nc2)c1 [Compound A, 1-[2-({[trans-3-fluoro-1-(3-fluoropyridin-2-yl)cyclobutyl]methyl}amino)pyrimidin-5-yl]-1H-pyrrole-3-carboxamide]",contractile response of the external urethral sphincter after adding test substance relative to before adding,[2],reinforced contractile response of the external urethral sphincter
same,contractile response of rat diaphragm,[3],reinforcing the contractile response of a rat diaphragm
same,reaction increasing urethra internal pressure after administration relative to before administration,[4],reinforced a reaction increasing urethra internal pressure
same,extensor digitorum longus muscle contractile response,[5],reinforcing extensor digitorum longus muscle contractile response
same,shift of concentration-response curve of intracellular calcium ions concentration and muscle tension,[6],shift the concentration-response curve of intracellular calcium ions concentration and muscle tension to the left
same,shift of concentration-response curve of intracellular calcium ions concentration and muscle tension,[7],shift the concentration-response curve of intracellular calcium ions concentration and muscle tension to the left
CNCC[C@H](Oc1cccc2ccccc12)c1cccs1 [duloxetine],adverse drug reactions,[1],undesirable adverse drug reactions such as suicide attempts were reported
same,efficacy on stress urinary incontinence,[1],effective on stress urinary incontinence
CNCCC(Oc1ccccc1OC)c1ccccc1 (stereo not drawn) [nisoxetine],incontinence induced by sneezing,[8],improved incontinence induced by sneezing
same,urethra internal pressure,[8],increased urethra internal pressure

# From patent publication US9987279B2, “Pharmaceutical composition for prevention and/or treatment of urinary incontinence” (ASTELLAS PHARMA INC., priority 2014, dated 2018)
